Source: PMC6542528, “Identification, structure-activity relationship and in silico molecular docking analyses of five novel angiotensin I-converting enzyme (ACE)-inhibitory peptides from stone fish (Actinopyga lecanora) hydrolysates” (PLoS ONE, 2019)
No end group written: not given here.

Legend:
[1] = target: T1, angiotensin I-converting enzyme (from rabbit lung) (Oryctolagus cuniculus, UniProt P12822); test: ACE-inhibitory activity assay (HHL substrate, colorimetric at 410 nm) and IC50 determination; assay type: biochemical; settings: mean ± SD, triplicate; for inhibition at 10000 µM: synthesized peptide at 10 mM; for IC50: synthesized peptide, non-linear regression
T1 construct: angiotensin I-converting enzyme (from rabbit lung); purchased Sigma Aldrich (St. Louis, Mo, USA); host or cells: rabbit lung (tissue-derived)
T1 sequence (P12822 34-1310): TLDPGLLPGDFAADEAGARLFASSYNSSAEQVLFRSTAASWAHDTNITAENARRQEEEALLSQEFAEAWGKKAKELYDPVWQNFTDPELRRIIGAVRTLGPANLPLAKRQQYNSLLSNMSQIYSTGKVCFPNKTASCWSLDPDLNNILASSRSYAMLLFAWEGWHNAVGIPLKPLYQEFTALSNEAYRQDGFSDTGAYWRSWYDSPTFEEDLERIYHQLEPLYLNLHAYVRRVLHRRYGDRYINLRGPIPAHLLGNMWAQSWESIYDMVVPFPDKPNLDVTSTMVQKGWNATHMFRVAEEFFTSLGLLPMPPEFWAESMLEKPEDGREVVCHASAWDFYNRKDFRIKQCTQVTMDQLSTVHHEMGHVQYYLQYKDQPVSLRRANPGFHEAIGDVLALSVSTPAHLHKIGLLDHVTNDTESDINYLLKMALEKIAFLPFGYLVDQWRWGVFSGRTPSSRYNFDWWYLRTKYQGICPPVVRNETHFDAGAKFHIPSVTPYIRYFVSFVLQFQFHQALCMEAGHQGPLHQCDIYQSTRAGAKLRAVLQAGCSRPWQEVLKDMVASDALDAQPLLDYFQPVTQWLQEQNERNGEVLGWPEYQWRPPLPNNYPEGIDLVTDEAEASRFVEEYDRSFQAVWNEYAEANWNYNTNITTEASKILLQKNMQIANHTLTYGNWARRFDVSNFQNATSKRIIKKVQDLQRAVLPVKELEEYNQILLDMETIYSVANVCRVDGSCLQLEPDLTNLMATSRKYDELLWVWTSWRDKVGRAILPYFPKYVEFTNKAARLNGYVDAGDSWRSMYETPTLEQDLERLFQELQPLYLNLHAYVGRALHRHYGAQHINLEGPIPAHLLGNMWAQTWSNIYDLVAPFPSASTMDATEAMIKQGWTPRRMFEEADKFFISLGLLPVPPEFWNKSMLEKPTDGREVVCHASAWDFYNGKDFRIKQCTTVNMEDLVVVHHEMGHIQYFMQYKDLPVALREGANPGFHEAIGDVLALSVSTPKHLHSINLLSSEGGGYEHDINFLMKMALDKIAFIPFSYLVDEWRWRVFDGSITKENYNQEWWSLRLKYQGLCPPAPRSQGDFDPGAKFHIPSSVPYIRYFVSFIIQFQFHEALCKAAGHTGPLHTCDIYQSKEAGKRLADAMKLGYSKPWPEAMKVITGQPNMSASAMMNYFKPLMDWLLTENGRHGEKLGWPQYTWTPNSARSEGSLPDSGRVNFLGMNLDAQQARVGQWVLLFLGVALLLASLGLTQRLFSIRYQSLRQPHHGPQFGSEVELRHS
Protocol: The peptides were chemically synthesized through solid phase synthesis for peptides ≥ 5 amino acids with a percentage purity of > 90% and supplied by Genscript (New Jersey, USA). The ACE-inhibitory activity was measured according to Jimsheena & Gowda with minor modifications. The Peptides stock solutions were diluted over ranges of concentration for each peptide. A 15 μL of the peptide was pre-incubated with 10 μL of ACE (100 mU/mL) at 37°C for 10 min. Then 50 μL of the 5 mM HHL substrate containing 0.30 M NaCl in 50 mM borate buffer pH 8.30 was added and the incubation was continued for the next 60 min. The reaction was stopped using 1 M HCl. Benzene sulfonyl chloride (BSC) and pyridine were then added at 75 μL and 150 μL, respectively and the amount of hippuric acid produced was quantified by the intensity of the yellow color produced in a microplate reader at 410 nm. The ACE-inhibitory activity of the peptides was then calculated from the average of three values as follows: ACE−inhibition(%)=[(AC−AS)/(AC−AB)]×100 (1)
Where AC means absorbance of control (where ACE and substrate were present), AS means absorbance of sample (where peptide, ACE and substrate were present), while AB means the absorbance of blank (where only substrate was present).

ACE = tested on: ACE; parameters: method as in PMID 22224920; settings: bromelain-generated peptide from Misgurnus anguillicaudatus tissue protein; cited from earlier work

EHPVL [Glu-His-Pro-Val-Leu]
inhibition at 10000 µM [1]: 54.8 ± 2.17%
IC50 [1]: 1680 ± 46 µM

KVPPKA [Lys-Val-Pro-Pro-Lys-Ala]
inhibition at 10000 µM [1]: 81.4 ± 1.78%
IC50 [1]: 980 ± 4 µM

EVLIQ [Glu-Val-Leu-Ile-Gln]
inhibition at 10000 µM [1]: 62.1 ± 2.15%
IC50 [1]: 1440 ± 17 µM

ALGPQFY [Ala-Leu-Gly-Pro-Gln-Phe-Tyr]
inhibition at 10000 µM [1]: 94.4 ± 2.05%
IC50 [1]: 12 ± 1 µM

Ala-His-Leu-Leu (AHLL; printed: Ala-His-Leu-Leu)
IC50 (ACE): 18.200 ± 0.900 µg/mL

LAPPTM [Leu-Ala-Pro-Pro-Thr-Met]
inhibition at 10000 µM [1]: 72.4 ± 1.99%
IC50 [1]: 1310 ± 17 µM
